According to patent US20100330588A1, “METHOD TO QUANTIFY METHYLTRANSFERASE ACTIVITY” (Utah State University, priority 2009, published 2010):

Tested on: Histone H3.3
Assay: methylation of Histone H3.3 by PRMT6 fusion proteins, reverse phase resin method of scheme 2
Assay type: biochemical
Details: 500 nM enzyme; 1.7 μM Histone H3.3; 37° C.
Procedure: Assays were performed at 37° C., in a final volume of 125 μl. Each assay contained 1.0 μM unlabeled S-adenosyl-L-methionine (AdoMet), […] S-adenosyl-L-[methyl-^3H]methionine (specific activity 67.3 Ci/mmol, 0.55 μCi/μl, Perkin Elmer), 100 mM Hepes, 0.38 μM bovine serum albumin (BSA), 10% glycerol, 10 nM AdoHcy Nucleosidase (MTAN), and 1.7 μM protein substrate; pH of reaction was 7.6. […] Samples (10 μL) were removed at specified times and were analyzed using either SDS-PAGE or methods related to the present disclosure, as discussed below.
A 10 µL aliquot of the reaction mixture was transferred to 6 μl of sample preparation buffer (8 M Guanidine-HCL in 2.5% trifluoroacetic acid (TFA)), making the final concentrations 3 M Guanidine-HCL and 0.94% TFA in the mixture. Guanidine-HCl denatures the protein and TFA makes the reaction very acidic so that PRMT activity is quenched. […] Eluate was dispensed into 20 ml of scintillation cocktail (Fisher Scientific) and counted in a LSC.
Referring now to FIG. 4, there is shown the comparison of the methylation activities of GST-PRMT6 and His-PRMT6 using the method disclosed in scheme 2. […] The reactions were processed and counted in scintillation cocktail.

## His-PRMT6: His-tagged PRMT6 protein arginine methyltransferase expressed in E. coli BL21 and purified
  fold higher methylation activity compared to GST-PRMT6: 5 fold
